Patent US6117365A, “Phenolic acid amides of hydroxy-substituted benzylamines” (Haarmann & Reimer GmbH, priority 1997, dated 2000)

What was measured:
[1] = accelerated autoxidation of lipids by air using a RANCIMAT apparatus (activity as antioxidants); details: for AOI (antioxidative index) = IP(with test solution)/IP(control sample): 0.05% of test substance, soy bean oil, 100° C., dry air stream 20 l/h
Experimental: The activity of example compounds 1 to 16 as antioxidants was compared with that of traditional antioxidants. The test system used was the accelerated autoxidation of lipids by air with or without antioxidant using a RANCIMAT apparatus (RANCIMAT is a registered trade mark of Metrohm AG, Herisau, Switzerland).
The example compounds, vitamin C, α-tocopherol, BHT, ferulic acid and the naturally occurring N-(2-[4-hydroxyphenyl]-ethyl)-4-hydroxy-3-methoxy-E-cinnamamide were dissolved in methanol or acetone, and 100 μl of each test solution were added to a 3 g pre-prepared oil sample (soy bean oil, purified over alumina type N). In a control sample, only solvent was added. A constant, dry air stream (20 l/h) was blown through the oil sample, which contained the test solution and was heated to 100° C., and the volatile oxidation products (predominantly short-chain fatty acids such as formic or acetic acid) were collected in a receiver containing water. The conductivity of this aqueous solution was continuously measured and recorded. The oxidation of (unsaturated) fats proceeds only very slowly for some time and then suddenly increases. The time to the increase is referred to as the induction period (IP).
The following equation was used to calculate the antioxidative index (AOI):
AOI=IP(with test solution) /IP(control sample)

[2] = DPPH test for the removal of free radicals (activity as free-radical scavengers); details: for EC50 (effective relative concentration, c(test compound)/c(DPPH), at which 50% of the free radical DPPH had been removed): DPPH 100 μmol/l in methanol, absorption at 515 nm read until the decrease was less than 2% per hour
Experimental: The activity of example compounds 1 to 16 as free-radical scavengers was compared with that of a traditional free-radical scavenger. The DPPH (1,1-diphenyl-2-picrylhydrazyl) test for the removal of free radicals was used.
DPPH was dissolved in methanol to a concentration of 100 μmol/l. A series of dilutions of the example compounds, vitamin C, α-tocopherol, BHT, ferulic acid and of the naturally occurring N-(2-[4-hydroxyphenyl]ethyl)-4-hydroxy-3-methoxy-E-cinnamamide were prepared in methanol. Methanol was used as the control. 2500 μl of the DPPH solution were mixed with 500 μl of each test solution and the decrease in absorption at 515 nm was read until the decrease was less than 2% per hour. The activity of the test substances as free-radical scavengers was calculated using the following equation:
Activity as free-radical scavenger (%)=100-(absorption of the test
compounds)/(absorption of the control)×100.
The activity as free-radical scavengers (%) in a series of dilutions of test compounds was used to calculate, for each test compound, the effective relative concentration EC50 (based on the starting concentration of DPPH, EC=c (test compound)/c(DPPH)) of a test compound, at which 50% of the free radical DPPH had been removed.

[3] = comparison in words with reference substances

SMILES | AOI (antioxidative index) = IP(with test solution)/IP(control sample) [1] | EC50 (effective relative concentration, c(test compound)/c(DPPH), at which 50% of the free radical DPPH had been removed) [2] [mol/mol] | action as antioxidant, in words [1, 3] | action as free-radical scavenger, in words [2, 3]
COc1cc(/C=C/C(=O)NCc2ccc(O)c(O)c2O)ccc1O [Example 3, N-(2,3,4-Trihydroxybenzyl)-4-hydroxy-3-methoxy-E-cinnamamide] | 11.7 | 0.097 |  | 
O=C1O[C@H]([C@@H](O)CO)C(O)=C1O [Vitamin C, L-ascorbic acid, reference compound] | 1.17 | 0.270 |  | 
O=C(CCc1ccc(O)c(O)c1)NCc1ccc(O)c(O)c1 [Example 9, N-(3,4-Dihydroxybenzyl)-3-(3,4-dihydroxyphenyl)-propanamide] | 19.8 | 0.07 |  | 
COc1cc(/C=C/C(=O)NCc2ccc(O)c(O)c2)ccc1O [Example 1, N-(3,4-Dihydroxybenzyl)-4-hydroxy-3-methoxy-E-cinnamamide] | 11.41 | 0.1 |  | 
COc1cc(CNC(=O)/C=C/c2ccc(O)c(O)c2)ccc1O [Example 12, N-(4-Hydroxy-3-methoxybenzyl)-3,4-dihydroxy-E-cinnamamide] | 14.3 | 0.089 |  | 
COc1cc(CC(=O)NCc2ccc(O)c(O)c2)ccc1O [Example 6, N-(3,4-Dihydroxybenzyl)-4-hydroxy-3-methoxyphenylacetamide] | 13.9 | 0.103 |  | 
O=C(Cc1ccc(O)c(O)c1)NCc1ccc(O)c(O)c1 [Example 16, N-(3,4-Dihydroxybenzyl)-3,4-dihydroxyphenylacetamide] | 8.84 | 0.053 |  | 
COc1cc(/C=C/C(=O)O)ccc1O [Ferulic acid, ferulic acid, reference compound] | 1.79 | 0.350 |  | 
O=C(/C=C/c1ccc(O)c(O)c1)NCc1ccc(O)c(O)c1O [Example 14, N-(2,3,4-Trihydroxybenzyl)-3,4-dihydroxy-E-cinnamamide] | 27.5 | 0.054 |  | 
COc1cc(CNC(=O)/C=C/c2ccc(O)c(O)c2)cc(OC)c1O [Example 13, N-(3,5-Dimethoxy-4-hydroxybenzyl)-3,4-dihydroxy-E-cinnamamide] | 3.6 | 0.1 |  | 
COc1cc(/C=C/C(=O)NCc2cc(O)c(O)c(O)c2)ccc1O [Example 5, N-(3,4,5-Trihydroxybenzyl)-4-hydroxy-3-methoxy-E-cinnamamide] | 21.4 | 0.0097 |  | 
COc1cc(/C=C/C(=O)NCc2ccc(O)c(O)c2O)cc(OC)c1O [Example 4, N-(2,3,4-Trihydroxybenzyl)-3,5-dimethoxy-4-hydroxy-E-cinnamamide] | 17.3 | 0.1 |  | 
COc1cc(/C=C/C(=O)NCc2ccc(O)c(O)c2)cc(OC)c1O [Example 2, N-(3,4-Dihydroxybenzyl)-3,5-dimethoxy-4-hydroxy-E-cinnamamide] | 7.58 | 0.097 |  | 
COc1cc(CCC(=O)NCc2ccc(O)c(O)c2)ccc1O [Example 7, N-(3,4-Dihydroxybenzyl)-3-(4-hydroxy-3-methoxyphenyl)-propanamide] | 7.7 | 0.094 |  | 
COc1cc(CNC(=O)CCc2ccc(O)c(O)c2)ccc1O [Example 8, N-(4-Hydroxy-3-methoxybenzyl)-3-(3,4-dihydroxyphenyl)-proyanamide] | 13.2 | 0.119 |  | 
O=C(CCc1ccc(O)c(O)c1)NCc1ccc(O)c(O)c1O [Example 10, N-(2,3,4-Trihydroxybenzyl)-3-(3,4-dihydroxyphenyl)-pronanamide] | 24.6 | 0.069 |  | 
COc1cc(CNC(=O)Cc2ccc(O)c(O)c2)ccc1O [Example 15, N-(4-Hydroxy-3-methoxybenzyl)-3,4-dihydroxyphenylacetamide] | 7.84 | 0.105 |  | 
Cc1c(C)c2c(c(C)c1O)CCC(C)(CCCC(C)CCCC(C)CCCC(C)C)O2 (stereo not drawn) [α-Tocopherol, α-tocopherol, reference compound] | 5.05 | 0.250 |  | 
COc1cc(/C=C/C(=O)NCCc2ccc(O)cc2)ccc1O [N-(2-[4-hydroxyphenyl]ethyl)-4-hydroxy-3-methoxy-E-cinnamamide, reference compound] | 1.41 | 0.441 | no better than α-tocopherol | no better than α-tocopherol
O=C(/C=C/c1ccc(O)c(O)c1)NCc1ccc(O)c(O)c1 [Example 11, N-(3,4-Dihydroxybenzyl)-3,4-dihydroxy-E-cinnamamide] | 14.9 | 0.043 |  | 
Cc1cc(C(C)(C)C)c(O)c(C(C)(C)C)c1 [BHT, 2,6-di-tert-butyl-4-methylphenol, reference compound] | 4.77 | 0.240 |  | 
